In general, IC50 refers to the concentration that gives 50% inhibition. A word on the CC50: it is the concentration that lowers cell viability or growth by half. Lower therefore signals greater toxicity to the cells. By inhibition is commonly meant the share of the control response that was lost under treatment. Read a low inhibition as little suppression. The term MIC denotes the least concentration at which growth counts as inhibited. Broadly, the MIC50 is the lowest concentration that inhibits either 50% of growth or 50% of the strains tested, depending on the study. A low value points to higher susceptibility. By MIC90 is commonly meant an inhibitory concentration at the 90% level, which refers to growth in some studies and to a panel of isolates in others. In general, GI50 refers to the concentration at which growth is held to half of that of the control. A low value points to greater sensitivity of the cells. A word on the inhibition in vivo: it is the relative decrease from the control value, in per cent.

The nature of series [1]: Inhibition of Trypanosoma brucei trypanopain.
A short description of series [2]: Inhibition of Trypanosoma cruzi trans-sialidase.
The subject of another series is Enterovirus. As to the kind of experiment: Antiviral activity against Rhinovirus infected in human HeLa cells. The format is functional, organism-based.
A short description of series [3]: Cytotoxicity against human HeLa cells. The series is classed as cell-based.
The test system of series [4] is Plasmodium falciparum. As to the kind of experiment: Inhibition of Plasmodium falciparum GST. The note with it: concentration not given here.
In series [5] the test system is Trichophyton rubrum. As to the kind of experiment: Antimicrobial activity against Trichophyton rubrum. The series is classed as functional.
Series [6] deals with Trichophyton rubrum. The series can be described thus: Antimicrobial activity against Trichophyton rubrum clinical isolates. The format is functional.
The subject of series [7] is Plasmodium falciparum. The series can be described thus: Anti-parasitic activity against Plasmodium falciparum assessed as inhibition of parasite development from ring to schizont stage. The format is functional.
Series [8] has as its system Plasmodium falciparum. The series can be described thus: Anti-parasitic activity against Plasmodium falciparum. The format is functional.
Series [9] can be described thus: Inhibition of new permeation pathway in erythrocytes (unknown origin) at 20 uM by sorbitol-induced hemolysis assay. The format is functional, cell-based. Conditions: Erythrocyte.
Series [10] is described as follows: Inhibition of Plasmodium falciparum falcipain.
A short description of series [11]: Inhibition of beta-hematin formation. The format is physicochemical.
Series [12] has as its system Plasmodium falciparum. The series can be described thus: Anti-parasitic activity against chloroquine-susceptible Plasmodium falciparum 3D7 assessed as reduction in parasite maturation. The series is classed as functional.
Series [13] relates to Leishmania amazonensis. As to the kind of experiment: Anti-leishmanial activity against Leishmania amazonensis intracellular amastigotes. The format is functional. Conditions: read-out: ED50.
In series [14] the test system is Leishmania amazonensis. As to the kind of experiment: Anti-leishmanial activity against Leishmania amazonensis promastigotes. The format is functional. Conditions: read-out: ED50.
The nature of series [15]: Selectivity index, ratio of cytotoxicity for human HeLa cells to IC50 for anti-parasitic activity against chloroquine-resistant Plasmodium falciparum W2. The format is toxicity, cell-based. Conditions: read-out: Selectivity Index.
Series [16] in a line: Inhibition of Trichophyton rubrum FAS.
Series [17] in a line: Inhibition of Saccharomyces cerevisiae beta-1,3-glucan synthase.
Series [18] concerns Trichophyton rubrum. The series can be described thus: Antimicrobial activity against wild type Trichophyton rubrum MYA3108. The format is functional.
Series [19] can be described thus: Inhibition of Saccharomyces cerevisiae chitin synthase-1.
The test system of series [20] is Trichophyton rubrum. As to the kind of experiment: Antimicrobial activity against Trichophyton rubrum with deltaTruMDR2 mutation. The series is classed as functional.
Series [21] concerns Plasmodium falciparum. As to the kind of experiment: Anti-parasitic activity against chloroquine-resistant Plasmodium falciparum W2. The format is functional, organism-based.
Series [22] relates to Plasmodium falciparum. The series can be described thus: Anti-parasitic activity against chloroquine-susceptible Plasmodium falciparum D6. The format is functional, organism-based.
For the next series, the system named is Leishmania major. The series can be described thus: Anti-leishmanial activity against Leishmania major. The format is functional, organism-based.
The test system of series [23] is Leishmania donovani. The series can be described thus: Anti-leishmanial activity against Leishmania donovani infected in hamsters assessed as reduction in parasite load in spleen at 20 mg/kg/day, ip for 6 consecutive days. The format is functional.
Series [24] concerns Leishmania donovani. As to the kind of experiment: Anti-leishmanial activity against Leishmania donovani infected in hamsters assessed as reduction in parasite load in spleen at 5 to 150 mg/kg/day, po for 6 consecutive days. The series is classed as functional.
Series [25] deals with Leishmania donovani. As to the kind of experiment: Anti-leishmanial activity against Leishmania donovani infected in hamsters assessed as reduction in parasite load in liver at 5 to 150 mg/kg/day, po for 6 consecutive days. The format is functional.
Series [26] is described as follows: Inhibition of Plasmodium falciparum Cytochrome b-c1 complex.
For series [27], the system named is Leishmania donovani. The series can be described thus: Anti-leishmanial activity against Leishmania donovani infected in hamsters assessed as reduction in parasite load in liver at 20 mg/kg/day, ip for 6 consecutive days. The series is classed as functional.
The nature of series [28]: Inhibition of Plasmodium falciparum succinate-ubiquinone oxidoreductase.
The next series has as its target Plasmepsin II (Plasmodium falciparum, UniProt P46925). As to the kind of experiment: (§1) Inhibition of Plasmodium falciparum plasmepsin 2.
The target in series [29] is Plasmepsin II (Plasmodium falciparum) (UniProt P46925). Described as §1. The note with it: concentration not given here.
The test system of series [30] is Plasmodium falciparum. As to the kind of experiment: Anti-parasitic activity against chloroquine-susceptible Plasmodium falciparum 3D7 assessed as reduction in parasite maturation at 50 ug/ml. The format is functional.

Converted amounts (≈) assume the structure as drawn. Some results are limits rather than exact numbers.

Plasmepsin II, sequence (P46925 whole entry): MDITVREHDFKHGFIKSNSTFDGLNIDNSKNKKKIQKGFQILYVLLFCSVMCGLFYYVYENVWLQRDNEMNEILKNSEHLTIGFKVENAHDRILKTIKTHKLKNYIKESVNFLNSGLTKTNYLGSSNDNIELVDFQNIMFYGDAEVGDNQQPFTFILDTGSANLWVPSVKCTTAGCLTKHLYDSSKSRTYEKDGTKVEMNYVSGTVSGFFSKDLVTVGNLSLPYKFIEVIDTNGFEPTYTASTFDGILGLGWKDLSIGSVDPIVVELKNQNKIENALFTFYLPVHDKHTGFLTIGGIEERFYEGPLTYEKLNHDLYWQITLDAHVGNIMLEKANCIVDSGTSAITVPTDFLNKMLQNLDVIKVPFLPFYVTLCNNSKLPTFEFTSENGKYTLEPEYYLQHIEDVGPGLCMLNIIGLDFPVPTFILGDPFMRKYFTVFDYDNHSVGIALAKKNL
Plasmepsin II (Plasmodium falciparum), sequence (P46925 125-453 limits assumed): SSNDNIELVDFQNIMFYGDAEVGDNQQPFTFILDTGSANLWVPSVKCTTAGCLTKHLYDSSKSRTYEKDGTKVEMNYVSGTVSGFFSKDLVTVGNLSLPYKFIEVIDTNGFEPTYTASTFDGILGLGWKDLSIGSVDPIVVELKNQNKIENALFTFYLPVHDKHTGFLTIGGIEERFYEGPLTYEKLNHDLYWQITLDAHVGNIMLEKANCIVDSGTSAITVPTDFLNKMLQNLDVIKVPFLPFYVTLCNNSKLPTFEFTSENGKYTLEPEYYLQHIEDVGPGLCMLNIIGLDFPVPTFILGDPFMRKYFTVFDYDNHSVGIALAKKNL

`O=C(/C=C/c1cc2ccccc2nc1Cl)c1ccc(Cl)c(Cl)c1Cl`: in series [1], half-maximal inhibition (IC50) was put at 240 nM.

As to `Cc1ccc(S(=O)(=O)Nc2ccc(C(=O)/C=C/c3ccc(O)c(O)c3)cc2)cc1`, half-maximal inhibition in series [2] (IC50) required 900 nM.

Turning to `CCOc1cc(O)c(C(=O)/C=C/c2ccc(OC)cc2)c(OC)c1`, the IC50 in the series with Enterovirus worked out at 0.03 µg/mL (≈ 0.0914 µM). In [3], this compound came in with a CC50 of 30 µg/mL (≈ 91.4 µM).

In turn, `COc1ccc(/C=C/C(=O)c2ccc(N3CCCC3)cc2)cc1` displayed an inhibition in the series with Plasmodium falciparum [4] of 84%.

As for `COc1cc(O)c(C(=O)/C=C/c2ccccc2Cl)c(OC)c1`, it took 12.5 µg/mL (≈ 39.2 µM) to inhibit growth in the series with Trichophyton rubrum [5] (MIC). In the series with Trichophyton rubrum [6], this compound gave an MIC50 of 12.5 µg/mL (≈ 39.2 µM) and an MIC90 of 25 µg/mL (≈ 78.4 µM).

For `COc1cc2c(cc1/C=C/C(=O)c1ccccc1)[C@H]1CC[C@]3(C)[C@@H](Oc4cc(OC)c(OC)c(OC)c4)CC[C@H]3[C@@H]1CC2`, the MIC with Plasmodium falciparum [7] amounted to 2.07 µM (≈ 1.21 µg/mL). Also, the GI50 with Plasmodium falciparum [8] was below 5000 nM. Further, the inhibition in [9] is above 70%.

The compound `O=C(/C=C/c1ccc(Cl)cc1)c1ccc(N2CCCCC2)cc1` registered an inhibition with Plasmodium falciparum [4] of 84%.

In series [10], `COc1cc2cc(/C=C/C(=O)c3ccc(Cl)cc3Cl)cnc2cc1OC` returned an IC50 of 19000 nM.

With `COc1ccc(/C=C/C(=O)c2ccc(NS(=O)(=O)c3cc(Cl)ccc3Cl)cc2)c(OC)c1OC`, in series [11], the IC50 stood at 480 nM.

`CCOc1ccc2nc(Cl)c(/C=C/C(=O)c3cc(Br)cc(Cl)c3O)cc2c1`: the MIC with Plasmodium falciparum [12] was 10 µg/mL (≈ 21.4 µM).

In [11], `O=C(/C=C/c1cccnc1)c1ccc(NS(=O)(=O)c2cc(Cl)ccc2Cl)cc1` yielded an IC50 of 500 nM.

Turning to `COc1cc(O)c(C(=O)/C=C/c2ccccc2)c(O)c1`, the EC50 in the series on Leishmania amazonensis [13] stood at 24 µg/mL (≈ 88.8 µM); in the series on Leishmania amazonensis [14] it was 0.5 µg/mL (≈ 1.85 µM).

Take `COc1ccc(/C=C/C(=O)c2ccccc2)cc1S(=O)(=O)N1CCOCC1`: in [15], the selectivity ratio was 9.

As for `O=C(/C=C/c1cc2ccccc2nc1Cl)c1cc(Br)cc(Cl)c1O`, in the series on Plasmodium falciparum [12], the MIC is 10 µg/mL (≈ 23.6 µM).

Regarding `O=C(/C=C/c1ccccc1)c1ccccc1` [CHALCONE], the values for the IC50 in [16], in series [17] and in series [19] were 68.23 µg/mL (≈ 328 µM), 0.14 µg/mL (≈ 0.672 µM) and 0.02 µg/mL (≈ 0.096 µM), respectively. For the same compound, the values for the MIC against Trichophyton rubrum [18] and in the series on Trichophyton rubrum [20] were 7.5 µg/mL (≈ 36 µM) and 1.9 µg/mL (≈ 9.12 µM), respectively.

As to `COc1ccc(/C=C/C(=O)c2ccc(-n3nnc4ccccc43)cc2)cc1`, the inhibition in the series with Plasmodium falciparum [4] is 84%.

Regarding `O=C(/C=C/c1cnc2ccccc2c1)c1cc(Cl)ccc1Cl`, the IC50 in the series with Plasmodium falciparum [21] and in the series with Plasmodium falciparum [22] was 200 nM in each case.

`Cc1ccc(S(=O)(=O)Nc2cccc(C(=O)/C=C/c3ccc(O)c(O)c3)c2)cc1` came in with an IC50 in [2] of 2500 nM.

Consider `COc1ccc(/C=C/C(=O)c2ccccc2O)c(OC)c1`, for which, in the series with Leishmania major, the IC50 was determined as 4540 nM.

Consider `C=CC(C)(C)c1cc(/C=C/C(=O)c2ccc(O)cc2)c(OC)cc1O` [LICOAGROCHACONE A], for which the inhibition in vivo at 20 mg/kg/day in the series with Leishmania donovani [23] and in the series with Leishmania donovani [27] was above 96% each time. The “inhibition (INH)” value with Leishmania donovani [24] and with Leishmania donovani [25] was above 65% each time. Also, the IC50 in series [26] was 10800 nM; in series [28] it was at least 100000 nM.

At Plasmepsin II, `COc1ccc(C(=O)/C=C/c2ccc(C(F)(F)F)cc2)c(OC)c1` yielded an IC50 of 6000 nM.

As for `O=C(/C=C\c1ccnc2ccccc12)c1cc(Cl)ccc1Cl`, the IC50 in the series with Plasmodium falciparum [21] and with Plasmodium falciparum [22] was 200 nM in each case.

In the case of `COc1cc(/C=C/C(=O)c2ccc(NC(=O)Nc3cccc(C(=O)/C=C/c4cc(OC)c(OC)c(OC)c4)c3)cc2)cc(OC)c1OC`, in [29], the inhibition stood at 87%.

Regarding `COc1ccc(C(=O)/C=C/c2ccc(F)cc2F)c(OC)c1`, on Plasmepsin II, the half-inhibitory concentration (IC50) came out at 6000 nM.

Regarding `O=C(/C=C/c1ccc(O)cc1)c1ccccc1` [4-HYDROXYCHALCONE], in the series on Leishmania major, the IC50 came out at 4000 nM.

Regarding `Cc1cccc(C(=O)/C=C(\I)c2cc3ccccc3nc2Cl)c1O`, the MIC in the series on Plasmodium falciparum [30] amounted to 50 µg/mL (≈ 111 µM).
